The results in this text go back to US20260167673A1, “NOVEL POLYPEPTIDE, POLYPEPTIDE DERIVATIVE AND USE THEREOF” (NANJING ANJI BIOTECHNOLOGY CO., LTD., priority 2023, published 2026).

Assay [1] deals with subcutaneous transplanted tumor model of tongue squamous cell carcinoma cells CAL27. Briefly: CAL27 subcutaneous transplanted tumor model (Example 7). As to conditions: 2.7 μM/kg, FIG. 10. Type of assay: in vivo, BALB/c nude mice. As for the experimental part: (1) A large number of human tongue squamous cell carcinoma CAL27 cells were cultured and digested with a 0.25% trypsin solution. After digestion was terminated, a cell suspension was centrifuged at 1000 rpm for 5 min, and the cells were resuspended in a serum-free DMEM culture medium and counted. The cell concentration was adjusted to 5×10^7 cells/mL.
(2) BALB/c nude mice (4-6 week old, female, weighing 14-16 g, adaptively fed in an SPF animal feeding room for 1 week) were inoculated with 100 μL of cell suspensions of corresponding groups under the left axilla, with an injection volume of 5×10^6 cells/mouse;
(3) After inoculation, the tumor growth at the inoculation sites of the nude mice was closely observed. On the 7th day after inoculation, white nodules appeared at the inoculation sites and could move subcutaneously upon touch. As the tumor tissues grew, hard tumor blocks gradually formed at the inoculation sites, and the average volume of the tumor tissues reached 80 mm^3 in about 14 days. The BALB/c nude mice were randomly divided into 3 groups (a normal saline group served as a blank control, and the dose of the micropeptide HMMW and the novel polypeptide HMMW15-51 was 2.7 μM/kg), with 10 mice in the blank group and 6 mice in each other group. […]
(4) The volume of the transplanted tumor was measured and recorded every three days. […]

In assay [2] the test system is human lung adenocarcinoma cells SPC-A1. Briefly: CCK8 proliferation inhibition, SPC-A1. Type of assay: cell-based. As to conditions: SPC-A1, 50 μM, 48 h. As for the experimental part:
(§1) Incubation was continued for 4 h in a cell incubator, an absorbance was measured at 450 nm, and a proliferation inhibition was calculated. Data was presented as mean±SD, and GraphPad Prism 5.0 statistical software was used. A t-test was used for comparison between two groups, while One-way Anova (Dunnett) was used for comparison among a plurality of groups.

Assay [3] concerns human papillary thyroid carcinoma cells NPPA87-1. Briefly: CCK8 proliferation inhibition, NPPA87-1. It counts as cell-based. As to conditions: NPPA87-1, 50 μM, 48 h. As for the experimental part:
as §1

Assay [4] deals with human bladder cancer cells EJ. Briefly: CCK8 proliferation inhibition, EJ. Type of assay: cell-based. As to conditions: 50 μM, 48 h. As for the experimental part: as §1
For assay [5], the system named is human cervical cancer cells Hela. Briefly: CCK8 proliferation inhibition, Hela. As to conditions: 50 μM, 48 h. Type of assay: cell-based. Here is the method:
as §1

Assay [6] deals with human kidney clear cell adenocarcinoma cells 786-O. Briefly: CCK8 proliferation inhibition, 786-O. It counts as cell-based. As to conditions: 50 μM, 48 h. As for the experimental part: as §1
Assay [7] has as its system human breast cancer cells SK-BR-3. Briefly: CCK8 proliferation inhibition, SK-BR-3. It counts as cell-based. As to conditions: SK-BR-3, 50 μM, 48 h. As for the experimental part: as §1
Assay [8] concerns human ovarian cancer Skvo3 cells. Briefly: Transwell metastasis inhibition, Skvo3. As to conditions: 48 h. It counts as cell-based. As for the experimental part: Melanoma, cervical cancer, ovarian cancer, liver cancer, and lung cancer cells were seeded into transwell chambers, with 100 μL per well. Different doses of the HMMW micropeptide and the novel polypeptide HMMW15-51 were added to each chamber as a treatment group, while no drug was added to a blank group. Then, 0.6 mL of a complete culture medium containing 10% FBS was added to the lower chambers of the transwell to stimulate cell metastasis, and the cells were cultured at 5% CO2 and 37° C. for 48 h. The culture solution was discarded from the wells. The cells were fixed with methanol at room temperature for 30 min, stained with 0.1% crystal violet at room temperature for 10 min, and rinsed with clean water. The upper layer nonmetastatic cells were wiped off with a cotton swab. The cells were observed under a microscope, and four fields of view were selected to take photos and count the cells. A metastasis inhibition (MI) was calculated according to a formula: […]
where Ntest represents the number of cell metastases in the treatment group, and Ncontrol represents the number of cell metastases in the blank control group.
Data was presented as mean±SD, and GraphPad Prism 5.0 statistical software was used.

Marks after values point to notes of the source that are not given here. Where no end group is shown, it is not given here.

For “MERAGVPGFSPRRSSVEAKMQSTSCSVRKSSTVTAWPAVVLLLSWGQRRGG [HMMW]”, the “in vivo tumorigenicity of CAL27 cells compared with normal saline control” value in assay [1] is given as “significantly inhibit”. Further, the “Inhibition (%)” value in assay [2] is reported as 49.128 ± 3.053 %; in assay [3] it was 48.192 ± 2.999 %; in assay [4], 47.820 ± 1.486 %; in assay [5], 52.644 ± 4.018 %; in assay [6], 62.624 ± 7.014 %; in assay [7], 53.710 ± 4.902 %. Moreover, the “Inhibition (%)” value in assay [8] (Skvo3 metastasis, 50 μmol/L) is 89.60*** %. In addition, the OD in assay [2] is listed as 0.525 ± 0.032; in assay [3] it was 0.478 ± 0.028; in assay [4], 0.638 ± 0.018; in assay [5] it was 0.493 ± 0.049; in assay [6], 0.413 ± 0.078; in assay [7], 0.507 ± 0.054. In assay [8] (Skvo3, 50 μmol/L), the “Number of cell metastases” value amounted to 118 ± 26.16.
